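GI50 is the concentration that inhibits growth by half. TGI: total growth inhibition.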
Tests used:
Assay in all cases: inhibition of tumour cell growth, NCI panel, 384-well format
[1] = tested on: HOP-62 NSCLC
[2] = tested on: NCI/ADR-RES ovarian
[3] = tested on: DU-145 prostate
[4] = tested on: TK-10 renal
[5] = tested on: IGROV1 ovarian
[6] = tested on: NCI-H226 lung
[7] = tested on: SW-620 colon
[8] = tested on: A549 NSCLC
[9] = tested on: HT29 colon
[10] = tested on: UACC-62 melanoma
[11] = tested on: SK-MEL-2 melanoma
[12] = tested on: MCF7 breast
[13] = tested on: NCI-H322M lung
[14] = tested on: OVCAR-8 ovarian
[15] = tested on: K-562 leukemia
[16] = tested on: HCC-2998 colon
[17] = tested on: NCI-H460 NSCLC
[18] = tested on: HCT-116 colon
[19] = tested on: SK-OV-3 ovarian
[20] = tested on: SNB-19 CNS
[21] = tested on: MOLT-4 leukemia
[22] = tested on: HCT-15 colon
[23] = tested on: MDA-MB-231 breast
[24] = tested on: A498 renal
[25] = tested on: SN12C renal
[26] = tested on: ACHN renal
[27] = tested on: SR leukemia
[28] = tested on: U251 glioblastoma
[29] = tested on: OVCAR-4 ovarian

C[C@H](c1ccc(Cl)cc1N)N1C(=O)c2cc(I)ccc2N(CCCN2CCN(C)CC2)C(=O)[C@@H]1c1ccc(Cl)cc1
GI50 [1]: 1.62 µM | TGI [1]: 2.98 µM | GI50 [2]: 1.59 µM | TGI [2]: 2.95 µM | GI50 [3]: 1.76 µM | TGI [3]: 3.16 µM | GI50 [4]: 1.58 µM | TGI [4]: 2.92 µM | GI50 [5]: 1.21 µM | TGI [5]: 2.47 µM | GI50 [6]: 0.649 µM | TGI [6]: 1.98 µM | GI50 [7]: 1.78 µM | TGI [7]: 3.19 µM | GI50 [8]: 1.06 µM | TGI [8]: 2.26 µM | GI50 [9]: 1.68 µM | TGI [9]: 3.08 µM | GI50 [10]: 0.591 µM | TGI [10]: 1.95 µM | GI50 [11]: 1.59 µM | TGI [11]: 2.94 µM | GI50 [12]: 1.06 µM | TGI [12]: 2.26 µM | GI50 [13]: 1.77 µM | TGI [13]: 3.17 µM | GI50 [14]: 1.73 µM | TGI [14]: 3.12 µM | GI50 [15]: 1.29 µM | TGI [15]: 2.58 µM | GI50 [16]: 1.25 µM | TGI [16]: 2.5 µM | GI50 [17]: 0.67 µM | TGI [17]: 2 µM | GI50 [18]: 0.613 µM | TGI [18]: 1.95 µM | GI50 [19]: 1.52 µM | TGI [19]: 2.85 µM | GI50 [20]: 1.71 µM | TGI [20]: 3.09 µM | GI50 [21]: 0.144 µM | TGI [21]: 0.279 µM | GI50 [22]: 1.68 µM | TGI [22]: 3.06 µM | GI50 [23]: 1.61 µM | TGI [23]: 2.96 µM | GI50 [24]: 0.779 µM | TGI [24]: 2.04 µM | GI50 [25]: 1.59 µM | TGI [25]: 2.94 µM | GI50 [26]: 0.965 µM | TGI [26]: 2.16 µM | GI50 [27]: 0.144 µM | TGI [27]: 0.28 µM | GI50 [28]: 1.64 µM | TGI [28]: 3.02 µM | GI50 [29]: 1.56 µM

Reference: PubChem BioAssay (NCI)
